Assay results as given in patent US20170119776A1, “CHIRAL 2,5-DISUBSTITUTED CYCLOPENTANECARBOXYLIC ACID DERIVATIVES AND USE THEREOF” (BAYER PHARMA AKTIENGESELLSCHAFT, priority 2014, published 2017).

Columns and labels:
Assay type in all cases: biochemical
MMP-8 of the rat = molecular target: T1, MMP-8 of the rat (Rattus norvegicus, UniProt O88766); test: In vitro MMP-8 inhibition test of the rat
T1 construct: purchased R&D Systems 3245-MP
Description: (§1) The activity strength of the compounds according to the invention towards other MMPs (and therefore their selectivity) is likewise ascertained in in vitro inhibition tests. The MMP-mediated amidolytic cleavage of a suitable peptide substrate also leads here to a fluorescent light increase. The signal intensity of the fluorescent light is directly proportional to the enzyme activity. The active concentration of a test compound at which half of the enzyme is inhibited (50% signal intensity of the fluorescent light) is given as IC50 value.
Recombinant MMP-8 of the rat (R&D Systems, 3245-MP) is chemically activated in accordance with the manufacturer's instructions using APMA. […] of the test compound to be analysed (as a solution in DMSO, suitable concentrations e.g. 1 nM to 30 μM) is pipetted into 24 μl of activated enzyme (final concentration e.g. 1 nM) in reaction buffer (50 mM Tris/HCl pH 7.5, 10 mM CaCl2, 150 mM NaCl, 0.05% Brij®-35) in a white 384-hole microtiter plate (MTP). The enzymatic reaction is started by adding the intramolecularly quenched substrate Mca-Lys-Pro-Leu-Gly-Leu-Dpa(Dnp)-Ala-Arg-NH2 (final concentration e.g. 5 μM; R&D Systems, ES-010), such that a total test volume of 50 μl results. The progress of the MMP-8 reaction is measured by measuring the fluorescence intensity (excitation 320 nm, emission 410 nm) over a suitable period (e.g. over 120 min at a temperature of 32° C.).
(§2) Tables 3A and 3B below give the IC50 values from these tests for the inhibition of rodent MMPs for representative embodiment examples of the present invention and also for two structurally related comparison compounds from the prior art (as racemate and separated enantiomer)→(in part as average values from several independent individual determinations and rounded to two significant places). The IC50 values were determined for racemates and enantiomers from differently generated DMSO stock solutions. Whereas an automatically created DMSO stock solution from the internal substance logistics was used for racemates by means of a standard method, in the case of enantiomers, in each case a freshly produced, manually prepared DMSO stock solution was used for a more precise direct comparison of the enantiomers with one another.

MMP-1 = molecular target: T2, MMP-1 (Homo sapiens, UniProt P03956); test: In vitro MMP-1 inhibition test
T2 construct: purchased R&D Systems 901-MP
T2 sequence (P03956 100-469): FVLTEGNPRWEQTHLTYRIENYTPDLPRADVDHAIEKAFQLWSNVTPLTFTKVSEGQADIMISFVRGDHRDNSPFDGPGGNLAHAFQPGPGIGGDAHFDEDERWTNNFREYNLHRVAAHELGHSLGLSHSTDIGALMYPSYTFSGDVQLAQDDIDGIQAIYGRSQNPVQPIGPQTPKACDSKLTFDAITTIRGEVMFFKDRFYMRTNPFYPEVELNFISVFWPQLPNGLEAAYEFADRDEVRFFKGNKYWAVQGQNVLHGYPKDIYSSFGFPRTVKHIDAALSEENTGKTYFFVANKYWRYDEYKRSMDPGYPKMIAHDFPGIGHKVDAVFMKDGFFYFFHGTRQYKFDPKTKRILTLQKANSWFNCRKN
Description: as §1
Recombinant MMP-1 (R&D Systems, 901-MP) is chemically activated in accordance with the manufacturer's instructions by using APMA. 1 μl of the test compound to be analysed (as a solution in DMSO, suitable concentrations e.g. 1 nM to 30 μM) is pipetted into 24 μl of activated enzyme (final concentration e.g. 2 nM) in reaction buffer (50 mM Tris/HCl pH 7.5, 10 mM CaCl2, 150 mM NaCl, 0.05% Brij®-35) in a white 384-hole microtiter plate (MTP). The enzymatic reaction is started by adding the intramolecularly quenched substrate Mca-Pro-Leu-Gly-Leu-Dpa(Dnp)-Ala-Arg-NH2 (final concentration e.g. 10 μM; R&D Systems, ES-001), such that a total test volume of 50 μl results. The progress of the MMP-1 reaction is measured by measuring the fluorescence intensity (excitation 320 nm, emission 410 nm) over a suitable period (e.g. over 120 min at a temperature of 32° C.).
The IC50 values were determined for racemates and enantiomers from differently generated DMSO stock solutions. Whereas an automatically produced DMSO stock solution from the internal substance logistics was used for racemates by means of a standard method, in the case of enantiomers a freshly produced, manually prepared DMSO stock solution was used in each case for a more precise direct comparison of the enantiomers with one another.

MMP-8 of the mouse = molecular target: T3, MMP-8 of the mouse (Mus musculus, UniProt O70138); test: In vitro MMP-8 inhibition test of the mouse
T3 construct: purchased R&D Systems 2904-MP
Description: as §1
Recombinant MMP-8 of the mouse (R&D Systems, 2904-MP) is chemically activated in accordance with the manufacturer's instructions using APMA. 1 μl of the test compound to be analysed (as a solution in DMSO, suitable concentrations e.g. 1 nM to 30 μM) is pipetted into 24 μl of activated enzyme (final concentration e.g. 2 nM) in reaction buffer (50 mM Tris/HCl pH 7.5, 10 mM CaCl2, 150 mM NaCl, 0.05% Brij®-35) in a white 384-hole microtiter plate (MTP). The enzymatic reaction is started by adding the intramolecularly quenched substrate Mca-Lys-Pro-Leu-Gly-Leu-Dpa(Dnp)-Ala-Arg-NH2 (final concentration e.g. 5 μM; R&D Systems, ES-010), such that a total test volume of 50 μl results. The progress of the MMP-8 reaction is measured by measuring the fluorescence intensity (excitation 320 nm, emission 410 nm) over a suitable period (e.g. over 120 min at a temperature of 32° C.).
as §2

T1 sequence (O88766 102-466): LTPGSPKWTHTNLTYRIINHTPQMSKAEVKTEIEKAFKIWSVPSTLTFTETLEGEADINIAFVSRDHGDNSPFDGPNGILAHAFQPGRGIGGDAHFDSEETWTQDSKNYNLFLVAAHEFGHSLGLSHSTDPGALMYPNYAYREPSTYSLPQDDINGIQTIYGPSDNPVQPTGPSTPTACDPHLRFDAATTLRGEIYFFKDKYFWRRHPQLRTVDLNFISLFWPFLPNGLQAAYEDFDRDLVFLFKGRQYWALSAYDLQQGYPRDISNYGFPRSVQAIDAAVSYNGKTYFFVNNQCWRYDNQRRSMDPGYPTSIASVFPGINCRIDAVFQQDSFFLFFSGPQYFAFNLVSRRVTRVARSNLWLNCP
T3 sequence (O70138 101-465): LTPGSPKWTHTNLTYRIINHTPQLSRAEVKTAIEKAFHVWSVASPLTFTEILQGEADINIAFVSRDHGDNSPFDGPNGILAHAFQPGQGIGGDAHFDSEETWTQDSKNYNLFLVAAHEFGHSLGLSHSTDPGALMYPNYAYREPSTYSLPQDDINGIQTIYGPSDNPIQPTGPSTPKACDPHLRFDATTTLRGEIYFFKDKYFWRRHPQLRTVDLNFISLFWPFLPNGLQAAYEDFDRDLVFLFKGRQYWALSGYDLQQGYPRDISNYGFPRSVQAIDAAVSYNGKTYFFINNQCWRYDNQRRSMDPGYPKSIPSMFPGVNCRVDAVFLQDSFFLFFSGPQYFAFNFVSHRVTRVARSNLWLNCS

Row | IC50 (MMP-8 of the rat) [nM] | IC50 (MMP-1) [nM] | IC50 (MMP-8 of the mouse) [nM] | SMILES
1 | 1.4 | 220 | 1.1 | O=C(O)[C@H]1[C@H](Cn2nnc3ccccc3c2=O)CC[C@@H]1C(=O)c1ccc(-c2ccc(Cl)cc2)cc1 (racemic) [Comparative Example A-1, (1RS,2RS,5SR)-2-[(4′-chlorobiphenyl-4-yl)carbonyl]-5-[(4-oxo-1,2,3-benzotriazin-3(4H)-yl)methyl]cyclopentanecarboxylic acid (racemate)]
2 | 3500 | > 40000 | 2300 | CCCCCOc1ccc(C(=O)CC(CCn2nnc3ccccc3c2=O)C(=O)O)cc1 (racemic) [Comparative Example B-1, (+/−)-4-Oxo-2-[2-(4-oxo-1,2,3-benzotriazin-3(4H)-yl)ethyl]-4-[4-(pentyloxy)phenyl]butanoic acid (racemate)]
3 | 100 | 12000 | 71 | O=C(O)[C@H]1[C@H](Cn2nnc3ccccc3c2=O)CC[C@@H]1C(=O)c1ccc(OCc2ccccc2)cc1 (racemic) [Example 1, (+/−)-(1RS,2RS,5SR)-2-[4-(Benzyloxy)benzoyl]-5-[(4-oxo-1,2,3-benzotriazin-3(4H)-yl)methyl]cyclopentanecarboxylic acid (racemate)]
4 | 1040 | > 40000 | 1080 | CCCCCOc1ccc(C(=O)CC(CCn2nnc3ccccc3c2=O)C(=O)O)cc1 (single isomer, unassigned; enantiomer 1) [Comparative Example B-2, (+)-4-Oxo-2-[2-(4-oxo-1,2,3-benzotriazin-3(4H)-yl)ethyl]-4-[4-(pentyloxy)phenyl]butanoic acid (enantiomer 1)]
5 | 38.5 | 5800 | 34.5 | O=C(O)[C@H]1[C@H](Cn2nnc3ccccc3c2=O)CC[C@@H]1C(=O)c1ccc(OCc2ccccc2)cc1 [Example 2, (+)-(1S,2S,5R)-2-[4-(Benzyloxy)benzoyl]-5-[(4-oxo-1,2,3-benzotriazin-3(4H)-yl)methyl]cyclopentanecarboxylic acid]
6 | 1.4 | 135 | < 0.61 | O=C(O)[C@@H]1[C@@H](Cn2nnc3ccccc3c2=O)CC[C@H]1C(=O)c1ccc(-c2ccc(Cl)cc2)cc1 (single isomer, unassigned; enantiomer 2) [Comparative Example A-3, (1RS,2RS,5SR)-2-[(4′-Chlorobiphenyl-4-yl)carbonyl]-5-[(4-oxo-1,2,3-benzotriazin-3(4H)-yl)methyl]cyclopentanecarboxylic acid (enantiomer 2)]
